Like-named read-outs stand apart in the source and are kept apart here.
Target: T1, Dipeptidyl peptidase IV (Homo sapiens, UniProt P27487)
T1 construct: Dipeptidyl peptidase IV was purified from human placenta; from tissue; host or cells: human placenta
Test: DPP IV inhibition assay (chromogenic substrate Ala-Pro-p-nitroanalide)
Assay type: biochemical
Settings: Xaa-N(Methyl)-boroGly series; for IC50: 10 min incubation with enzyme, assay 25° C.; for Cyclization Index (CI): ratio of the IC50 at pH 8 and the IC50 at pH 2
Procedure: Dipeptidyl peptidase IV was purified from human placenta. Assays were performed at room temperature (25° C.) in 100 mM HEPES, pH 8.0, 0.14 M NaCl with the chromogenic substrate Ala-Pro-p-nitroanalide (Bachem) using a Molecular Devices SPECTRAmax 340PC^384 microtiter plate reader Inhibitor stocks (1 mg/mL) were prepared in 0.01 N HCl solution for pH 2.0 and in pH 8.0 HEPES buffer for pH 8.0. Both stocks were equilibrated at corresponding pH overnight at room temperature. The 1:10 dilution of inhibitor stocks was done with 0.01 N HCl for pH 2.0 and with pH 8.0 HEPES buffer for pH 8.0 immediately preceding the enzymatic reactions. Enzymatic reactions were carried out by incubating 250 μL of approximately 0.35 nM DPP IV with 30 μL of various inhibitor concentrations (ranging between 10^−3 and 10^−10 M) for 10 minutes before addition of 30 μL of 300 μM substrate. The absorbance at 410 nm was measured 30 minutes after addition of the substrate. Assays and their corresponding measurements were performed in triplicate. The negative control was prepared exactly the same as above, except that 30 μL of 0.01 N HCl was added instead of inhibitor solutions.
After a 10 minute incubation with the enzyme before addition of the substrate. The IC50 values were determined by fitting the data to a sigmoidal dose-response curve using non-linear regression in Prism 3.0 (Graph Pad).

[1] = inhibitor stock equilibrated overnight at pH 2.0 (0.01 N HCl), HEPES pH 8.0, read-out: IC50 (pH 2)
[2] = inhibitor stock equilibrated overnight at pH 8.0 (HEPES buffer), read-out: IC50 (pH 8)

T1 sequence (P27487 whole entry): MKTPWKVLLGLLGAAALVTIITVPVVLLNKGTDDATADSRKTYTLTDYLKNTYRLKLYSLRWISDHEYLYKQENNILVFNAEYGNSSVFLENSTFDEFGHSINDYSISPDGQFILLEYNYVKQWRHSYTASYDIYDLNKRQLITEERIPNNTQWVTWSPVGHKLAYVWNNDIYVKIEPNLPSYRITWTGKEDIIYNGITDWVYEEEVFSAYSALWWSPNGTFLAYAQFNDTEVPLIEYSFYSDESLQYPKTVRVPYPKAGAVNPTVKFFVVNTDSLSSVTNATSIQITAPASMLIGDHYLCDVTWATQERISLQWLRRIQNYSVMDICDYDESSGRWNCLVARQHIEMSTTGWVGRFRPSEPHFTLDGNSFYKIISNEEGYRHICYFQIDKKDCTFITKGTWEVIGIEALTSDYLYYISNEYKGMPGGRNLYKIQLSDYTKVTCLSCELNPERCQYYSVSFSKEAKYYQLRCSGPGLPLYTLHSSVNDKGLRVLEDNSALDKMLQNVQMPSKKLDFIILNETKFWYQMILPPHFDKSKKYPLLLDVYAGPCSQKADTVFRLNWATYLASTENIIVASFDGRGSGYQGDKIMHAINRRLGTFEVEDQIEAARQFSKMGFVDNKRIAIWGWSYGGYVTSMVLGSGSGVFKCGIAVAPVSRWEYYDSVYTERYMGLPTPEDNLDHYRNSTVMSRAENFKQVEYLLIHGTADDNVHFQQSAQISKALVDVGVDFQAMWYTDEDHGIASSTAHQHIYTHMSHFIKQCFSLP

| Compound | IC50 [1] | IC50 [2] | Cyclization Index (CI) |
| --- | --- | --- | --- |
| H-(S)-N-(Me)-Ala-boroSar [N-Methyl-Ala] | < 75 µM | < 1000 µM | <5 |
| C[C@@H](O)[C@H](N)C(=O)N(C)CB(O)O [Thr, H-(S)-Thr-boroSar] | < 0.7 µM | < 50 µM | <100 |
| CN(CB(O)O)C(=O)CNC(C)(C)C [N-t-Butyl-Gly, H-N-(tBu)-Gly-boroSar] | < 0.15 µM | < 0.15 µM | <1 |
| CSCC[C@H](N)C(=O)N(C)CB(O)O [Met, H-(S)-Met-boroSar] | < 0.4 µM | < 25 µM | <100 |
| CC(C)(C)C(N)C(=O)O (stereo not drawn) [t-Butyl-Gly] | < 0.15 µM | < 0.15 µM | <1 |

From patent US20100105629A1, “N-Substituted Peptidomimetic Inhibitors of Dipeptidylpeptidase IV” (priority 2007, published 2010)
